For 13 compounds, inhibition and CC50 results are on record in US9873680B2 (Gilead Sciences, Inc., priority 2014, dated 2018).

SMILES strings stand for the structures. Like-named read-outs stand apart in the source and are kept apart here.

For one data set, the system named is HIV-IIIb. Kind of data set: Test A: Antiviral Assay in MT4 Cells. The data set is classed as cell-based, HIV-1. The conditions noted are these: read-out: % inhibition at 0.2 μM (percent inhibition of virus-induced cell killing). In outline: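 Readout was CellTiter-Glo luminescence after 10 min room-temperature lysis, taken 5 days after plating at 37 °C. The 2000 MT-4 cells per well, mixed 1 h beforehand with HIV-IIIb (m.o.i. 0.003), went straight onto the diluted compound.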

Data set [1] can be described thus: Test B: Cytotoxicity Assay. It counts as cell-based. The conditions noted are these: human, uninfected MT-4 cells, CellTiter-Glo. On the procedure: Test B: Cytotoxicity Assay Compound cytotoxicity and the corresponding CC50 values was determined using the same protocol as described in the antiviral assay (Test A) except that uninfected cells were used.
Setting [2] is: Human immunodeficiency virus 1, MT4, 120 h, 0.2 μM drug concentration, MT-4 cells infected with HIV-IIIb, 5 days, values normalized to 100%, average over time.

For the compound `Cn1nc(NS(C)(=O)=O)c2c(Cl)ccc(-c3ccc(C#CC(O)C4CNC4)nc3[C@H](Cc3cc(F)cc(F)c3)NC(=O)Cn3nc(C(F)(F)F)c4c3C(F)(F)[C@@H]3C[C@H]43)c21` (stereo partly drawn) [Compound 65, N-((1S)-1-(6-(3-(azetidin-3-yl)-3-hydroxyprop-1-yn-1-yl)-3-(4-chloro-1-methyl-3-(methylsulfonamido)-1H-indazol-7-yl)pyridin-2-yl)-2-(3,5-difluorophenyl)ethyl)-2-((3bS,4aR)-5,5-difluoro-3-(trifluoromethyl)-3b,4,4a,5-tetrahydro-1H-cyclopropa[3,4]cyclopenta[1,2-c]pyrazol-1-yl)acetamide], in the data set with HIV-IIIb (setting [2]), the inhibition (in general, the relative decrease from the control value, in per cent) at 0.2 µM worked out at 37%. The CC50 (in general, the concentration giving 50% cytotoxicity) at 5 days in data set [1] amounted to 19.3 µM.
As for `Cn1nc(NS(C)(=O)=O)c2c(Cl)ccc(-c3ccc(C#CC4CCCN4C(=O)CO)nc3[C@H](Cc3cc(F)cc(F)c3)NC(=O)Cn3nc(C(F)(F)F)c4c3C(F)(F)[C@@H]3C[C@H]43)c21` (stereo partly drawn) [Compound 66, N-((1S)-1-(3-(4-chloro-1-methyl-3-(methylsulfonamido)-1H-indazol-7-yl)-6-((1-(2-hydroxyacetyl)pyrrolidin-2-yl)ethynyl)pyridin-2-yl)-2-(3,5-difluorophenyl)ethyl)-2-((3bS,4aR)-5,5-difluoro-3-(trifluoromethyl)-3b,4,4a,5-tetrahydro-1H-cyclopropa[3,4]cyclopenta[1,2-c]pyrazol-1-yl)acetamide], in the data set on HIV-IIIb (setting [2]), the inhibition at 0.2 µM stood at 92%. This compound also had a CC50 at 5 days in data set [1] of 11.6 µM.
Regarding `Cn1cnc(C#Cc2ccc(-c3ccc(Cl)c4c(NS(C)(=O)=O)nn(C)c34)c([C@H](Cc3cc(F)cc(F)c3)NC(=O)Cn3nc(C(F)(F)F)c4c3C(F)(F)[C@@H]3C[C@H]43)n2)c1` [Compound 67, N—((S)-1-(3-(4-chloro-1-methyl-3-(methylsulfonamido)-1H-indazol-7-yl)-6-((1-methyl-1H-imidazol-4-yl)ethynyl)pyridin-2-yl)-2-(3,5-difluorophenyl)ethyl)-2-((3bS,4aR)-5,5-difluoro-3-(trifluoromethyl)-3b,4,4a,5-tetrahydro-1H-cyclopropa[3,4]cyclopenta[1,2-c]pyrazol-1-yl)acetamide], the inhibition at 0.2 µM in the data set on HIV-IIIb (setting [2]) worked out at 87%. This compound also gave a CC50 at 5 days in data set [1] greater than 53.2 µM.
The matching figures for `Cn1nc(NS(C)(=O)=O)c2c(Cl)ccc(-c3ccc(C#CC4CNCCO4)nc3[C@H](Cc3cc(F)cc(F)c3)NC(=O)Cn3nc(C(F)F)c4c3C(F)(F)[C@@H]3C[C@H]43)c21` (stereo partly drawn) [Compound 68, N-((1S)-1-(3-(4-chloro-1-methyl-3-(methylsulfonamido)-1H-indazol-7-yl)-6-(morpholin-2-ylethynyl)pyridin-2-yl)-2-(3,5-difluorophenyl)ethyl)-2-((3bS,4aR)-3-(difluoromethyl)-5,5-difluoro-3b,4,4a,5-tetrahydro-1H-cyclopropa[3,4]cyclopenta[1,2-c]pyrazol-1-yl)acetamide]: 100% and 7.51 µM.
As for `Cn1nc(NS(C)(=O)=O)c2c(Cl)ccc(-c3ccc(C#CC4(O)CCC4)nc3[C@H](Cc3cc(F)cc(F)c3)NC(=O)Cn3nc(C(F)F)c4c3C(F)(F)[C@@H]3C[C@H]43)c21` [Compound 69, N—((S)-1-(3-(4-chloro-1-methyl-3-(methylsulfonamido)-1H-indazol-7-yl)-6-((1-hydroxycyclobutyl)ethynyl)pyridin-2-yl)-2-(3,5-difluorophenyl)ethyl)-2-((3bS,4aR)-3-(difluoromethyl)-5,5-difluoro-3b,4,4a,5-tetrahydro-1H-cyclopropa[3,4]cyclopenta[1,2-c]pyrazol-1-yl)acetamide], the inhibition at 0.2 µM with HIV-IIIb (setting [2]) amounted to 96%. For the same compound, the CC50 at 5 days in data set [1] worked out at 13.6 µM.
The matching figures for `Cn1nc(NS(C)(=O)=O)c2c(Cl)ccc(-c3ccc(C#CC(C)(O)Cn4cncn4)nc3[C@H](Cc3cc(F)cc(F)c3)NC(=O)Cn3nc(C(F)(F)F)c4c3C(F)(F)[C@@H]3C[C@H]43)c21` (stereo partly drawn) [Compound 70B, N-((1S)-1-(3-(4-chloro-1-methyl-3-(methylsulfonamido)-1H-indazol-7-yl)-6-(3-hydroxy-3-methyl-4-(1H-1,2,4-triazol-1-yl)but-1-yn-1-yl)pyridin-2-yl)-2-(3,5-difluorophenyl)ethyl)-2-((3bS,4aR)-5,5-difluoro-3-(trifluoromethyl)-3b,4,4a,5-tetrahydro-1H-cyclopropa[3,4]cyclopenta[1,2-c]pyrazol-1-yl)acetamide]: 96% and 14.2 µM.
`Cn1nc(NS(C)(=O)=O)c2c(Cl)ccc(-c3ccc(-c4cnn(C5CCOCC5)c4)nc3[C@H](Cc3cc(F)cc(F)c3)NC(=O)Cn3nc(C(F)(F)F)c4c3C(F)(F)[C@@H]3C[C@H]43)c21` [Compound 71, N—((S)-1-(3-(4-chloro-1-methyl-3-(methylsulfonamido)-1H-indazol-7-yl)-6-(1-(tetrahydro-2H-pyran-4-yl)-1H-pyrazol-4-yl)pyridin-2-yl)-2-(3,5-difluorophenyl)ethyl)-2-((3bS,4aR)-5,5-difluoro-3-(trifluoromethyl)-3b,4,4a,5-tetrahydro-1H-cyclopropa[3,4]cyclopenta[1,2-c]pyrazol-1-yl)acetamide]: the inhibition at 0.2 µM in the data set with HIV-IIIb (setting [2]) was determined as 97%. The CC50 at 5 days in data set [1] is greater than 53.2 µM.
The matching figures for `Cn1nc(NS(C)(=O)=O)c2c(Cl)ccc(-c3ccc(-c4cnn(C5COC5)c4)nc3[C@H](Cc3cc(F)cc(F)c3)NC(=O)Cn3nc(C(F)(F)F)c4c3C(F)(F)[C@@H]3C[C@H]43)c21` [Compound 72, N—((S)-1-(3-(4-chloro-1-methyl-3-(methylsulfonamido)-1H-indazol-7-yl)-6-(1-(oxetan-3-yl)-1H-pyrazol-4-yl)pyridin-2-yl)-2-(3,5-difluorophenyl)ethyl)-2-((3bS,4aR)-5,5-difluoro-3-(trifluoromethyl)-3b,4,4a,5-tetrahydro-1H-cyclopropa[3,4]cyclopenta[1,2-c]pyrazol-1-yl)acetamide]: 93% and 50.3 µM.
`Cn1nc(NS(C)(=O)=O)c2c(Cl)ccc(-c3ccc(C#CC4CCCNC4)nc3[C@H](Cc3cc(F)cc(F)c3)NC(=O)Cn3nc(C(F)(F)F)c4c3C(F)(F)[C@@H]3C[C@H]43)c21` (stereo partly drawn) [Compound 73, N-((1S)-1-(3-(4-chloro-1-methyl-3-(methylsulfonamido)-1H-indazol-7-yl)-6-(piperidin-3-ylethynyl)pyridin-2-yl)-2-(3,5-difluorophenyl)ethyl)-2-((3bS,4aR)-5,5-difluoro-3-(trifluoromethyl)-3b,4,4a,5-tetrahydro-1H-cyclopropa[3,4]cyclopenta[1,2-c]pyrazol-1-yl)acetamide]: the inhibition at 0.2 µM with HIV-IIIb (Human immunodeficiency virus 1, IIIB, MT4, 120 h) was 100%. Also, in data set [1], the midpoint of cytotoxicity, the CC50 at 5 days, lay at 6 µM.
`Cn1nc(NS(C)(=O)=O)c2c(Cl)ccc(-c3ccc(C#CC4(O)COC(C)(C)OC4)nc3[C@H](Cc3cc(F)cc(F)c3)NC(=O)Cn3nc(C(F)(F)F)c4c3C(F)(F)[C@@H]3C[C@H]43)c21` [Compound 74, N—((S)-1-(3-(4-chloro-1-methyl-3-(methylsulfonamido)-1H-indazol-7-yl)-6-((5-hydroxy-2,2-dimethyl-1,3-dioxan-5-yl)ethynyl)pyridin-2-yl)-2-(3,5-difluorophenyl)ethyl)-2-((3bS,4aR)-5,5-difluoro-3-(trifluoromethyl)-3b,4,4a,5-tetrahydro-1H-cyclopropa[3,4]cyclopenta[1,2-c]pyrazol-1-yl)acetamide]: the inhibition at 0.2 µM with HIV-IIIb (setting [2]) came to 77%. Further, the midpoint of cytotoxicity in data set [1], the CC50 at 5 days, lay at 8.62 µM.
As for `Cn1nc(NS(C)(=O)=O)c2c(Cl)ccc(-c3ccc(C#CC4(O)CCCNC4)nc3[C@H](Cc3cc(F)cc(F)c3)NC(=O)Cn3nc(C(F)(F)F)c4c3C(F)(F)[C@@H]3C[C@H]43)c21` (stereo partly drawn) [Compound 75, N-((1S)-1-(3-(4-chloro-1-methyl-3-(methylsulfonamido)-1H-indazol-7-yl)-6-((3-hydroxypiperidin-3-yl)ethynyl)pyridin-2-yl)-2-(3,5-difluorophenyl)ethyl)-2-((3bS,4aR)-5,5-difluoro-3-(trifluoromethyl)-3b,4,4a,5-tetrahydro-1H-cyclopropa[3,4]cyclopenta[1,2-c]pyrazol-1-yl)acetamide], in the data set with HIV-IIIb (setting [2]), the inhibition at 0.2 µM was found to be 81%. The compound also gave a CC50 at 5 days in data set [1] of 5.59 µM.
For the compound `Cn1nc(NS(C)(=O)=O)c2c(Cl)ccc(-c3ccc(C#CC4(C)CNCCO4)nc3[C@H](Cc3cc(F)cc(F)c3)NC(=O)Cn3nc(C(F)(F)F)c4c3C(F)(F)[C@@H]3C[C@H]43)c21` (stereo partly drawn) [Compound 76, N-((1S)-1-(3-(4-chloro-1-methyl-3-(methylsulfonamido)-1H-indazol-7-yl)-6-((2-methylmorpholin-2-yl)ethynyl)pyridin-2-yl)-2-(3,5-difluorophenyl)ethyl)-2-((3bS,4aR)-5,5-difluoro-3-(trifluoromethyl)-3b,4,4a,5-tetrahydro-1H-cyclopropa[3,4]cyclopenta[1,2-c]pyrazol-1-yl)acetamide], the inhibition at 0.2 µM in the data set on HIV-IIIb (setting [2]) is 93%. In addition, in data set [1], the CC50 at 5 days was 6.67 µM.
The matching figures for `Cn1nc(NS(C)(=O)=O)c2c(Cl)ccc(-c3ccc(C#CC4(C)CNCCO4)nc3[C@H](Cc3cc(F)cc(F)c3)NC(=O)Cn3nc(C(F)F)c4c3C(F)(F)[C@@H]3C[C@H]43)c21` (stereo partly drawn) [Compound 77, N-((1S)-1-(3-(4-chloro-1-methyl-3-(methylsulfonamido)-1H-indazol-7-yl)-6-((2-methylmorpholin-2-yl)ethynyl)pyridin-2-yl)-2-(3,5-difluorophenyl)ethyl)-2-((3bS,4aR)-3-(difluoromethyl)-5,5-difluoro-3b,4,4a,5-tetrahydro-1H-cyclopropa[3,4]cyclopenta[1,2-c]pyrazol-1-yl)acetamide]: 90% and 7.7 µM.
